Results as given in BigSolDB 2.1.

CC[C@H](C)[C@H]1O[C@]2(C=C[C@@H]1C)C[C@@H]1C[C@@H](C/C=C(\C)[C@@H](O[C@H]3C[C@H](OC)[C@@H](O[C@H]4C[C@H](OC)[C@@H](O)[C@H](C)O4)[C@H](C)O3)[C@@H](C)/C=C/C=C3\CO[C@@H]4[C@H](O)C(C)=C[C@@H](C(=O)O1)[C@]34O)O2
solubility (mole fraction)
Conditions	283.15 K	288.15 K	293.15 K	298.15 K	303.15 K	308.15 K	313.15 K
in acetone	0.00916	0.0104	0.0119	0.0134	0.0151	0.0175	0.0194
in isopropanol	0.00481	0.00589	0.0071	0.00804	0.0096	0.0113	0.0137
